In patent publication US11510980B2, “Brartemicin analogues” (VICTORIA LINK LTD, priority 2017, dated 2022):
Entries after “also recorded” stand apart in the source; their conditions may differ.

Assays:
hMincle-Ig = target: T1, hMincle-Ig (Homo sapiens, UniProt Q9ULY5); assay: In vitro Mincle binding assay (ELISA) with hMincle-Ig fusion protein; details: plate-coated ligand 0.1 nmol/well
T1 construct: using soluble Mincle-Ig fusion-proteins; made in house
T1 sequence (Q9ULY5 41-219 limits assumed): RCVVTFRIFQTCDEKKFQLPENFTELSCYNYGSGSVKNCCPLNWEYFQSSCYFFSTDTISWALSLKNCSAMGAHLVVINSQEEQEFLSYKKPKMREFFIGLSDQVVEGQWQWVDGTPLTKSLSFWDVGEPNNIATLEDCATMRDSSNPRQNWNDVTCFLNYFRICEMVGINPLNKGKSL
Description: (§1) Preparation of ligand-coated plates: Brartemicin analogues 9a-9i, TDM (Carbosynth, Sigma Aldrich), and TDB^14 were dissolved in CHCl3:MeOH (2:1, 1 mM), diluted in isopropanol ([…]) and added to 96-well plates (20 μL/well). The solvents were evaporated and the coated plates were used immediately.
In vitro Mincle binding assay: The preparation of mMincle- and hMincle-Ig fusion proteins have been previously described. Plate-coated glycolipids 9a-i, TDB, and TDM were incubated with hMincle-Ig, mMincle-Ig, or hIgG1-Fc (Ig) [3 μg/mL in binding buffer (20 mM Tris-HCl, 150 mM NaCl, 1 mM CaCl2), 2 mM MgCl2, pH 7.0)]. Detection of bound protein was achieved via incubation with anti-hIgG-HRP followed by the addition of a colorimetric substrate and measurement of OD at 450 nm. Background was accounted for by subtracting the hIgG1-Fc OD450 values from fusion protein OD450 values
The synthesised brartemicin analogues prepared in Example 1 were first tested for their ability to bind to both human and murine Mincle in an enzyme-linked immunosorbent assay (ELISA) using soluble Mincle-Ig fusion-proteins (FIG. 1a).

hMincle+FcRγ = target: T2, hMincle+FcRγ (Homo sapiens, UniProt Q9ULY5); assay: 2B4-NFAT-GFP reporter cells expressing hMincle+FcRγ; format: cell-based; details: ligand-coated plates 0.01, 0.1 or 1 nmol/well, 18 hours
T2 construct: expressed in transfected cells; host or cells: 2B4-NFAT-GFP reporter cells
T2 sequence (Q9ULY5 1-219): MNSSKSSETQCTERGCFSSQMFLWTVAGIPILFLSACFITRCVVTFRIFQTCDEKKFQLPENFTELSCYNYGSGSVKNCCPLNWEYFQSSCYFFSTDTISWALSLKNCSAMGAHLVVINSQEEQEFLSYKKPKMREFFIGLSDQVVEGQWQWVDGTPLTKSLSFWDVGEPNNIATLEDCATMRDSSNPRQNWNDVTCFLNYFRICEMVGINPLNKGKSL
Description: as §1
2B4-NFAT-GFP reporter cells: 2B4-NFAT-GFP reporter cells expressing mMincle+FcRγ, hMincle+FcRγ, or FcRγ only have been previously described. […] The reporter cells were harvested, stained with propidium iodide, and analysed for NFAT-GFP expression using flow cytometry (FACS Calibur).
To determine whether the Mincle binding observed in Example 1 correlated with cellular activation, nuclear factor of activated T cells (NFAT)-green fluorescent protein (GFP) reporter cells expressing mMincle or hMincle coupled to FcRγ were stimulated using plates coated with TDM, TDB, brartemicin (9i), or analogues 9a-9h.
Activation of the reporter cells was measured through the production of GFP, which was monitored by flow cytometry (FIGS. 1b and 3c).
With the compounds 43a-h in hand, the ability of these analogues to bind and signal through Mincle was assessed (FIG. 5). Accordingly, NFAT-GFP reporter cells expressing mMincle+FcRγ, hMincle+FcRγ, or FcRγ-only were stimulated with the 2G-brartemicin analogues 43a-h, TDB, iPrOH, or the p-OC18H37 substituted analogue, 9f. Reporter cell activation was measured by the production of NFAT-GFP, which was analysed by flow cytometry.

wild-type GM-CSF BMDMs = assay: Cytokine/chemokine production by wild-type GM-CSF BMDMs on ligand-coated plates; format: cell-based, C57BL/6 mice; details: wild-type BMDMs, coated plates 0.1 or 1 nmol/well, 24 hours, ELISA
Description: as §1
Murine bone-marrow derived macrophages: For the preparation of murine bone-marrow derived macrophages, bone marrow cells were collected from the tibias and femurs of C57BL/6 mice and cultured (250,000 cells/mL) in complete RPMI media [RPMI-1640 (Gibco) with 10% heat inactivated fetal bovine serum (Gibco), 100 unit/mL penicillin-streptomycin (Gibco) and 2 mM Glutamax (Gibco)] supplemented with 50 ng/mL GM-CSF (clone X63/GM-CSF murine cells). Cells were incubated at 37° C. (5% CO2) for 8 days (cells fed by replacing half the media on days 3 and 6). On day 8, all media was removed and the cells were washed with Dulbecco's Phosphate-Buffered Saline (DPBS, Gibco) to remove any loosely-adherent cells. The BMDMs were harvested with StemPro Acutase (1 mL/well, 15 minutes at room temperature, Gibco) and seeded onto a pre-coated 96-well plate. The supernatant was collected and analysed for cytokine/chemokine production after 24 hours.
(§2) Cytokine analysis: IL-1β, IFN-γ, IL-6, TNF-α (BD Biosciences), IL-17, and MIP-2 (R&D) levels were determined via sandwich ELISA according to the manufacturer's instructions.
First, the ability of the compounds to activate GM-CSF BMDMs was determined by monitoring the secretion of the inflammatory cytokines TNF, IL-6, and IL-1β and the chemokine, MIP-2, in a ligand-coated plate assay (FIG. 2).
To gain insight into the capacity of the 2G-series of brartemicin analogues to induce an inflammatory immune response, the analogues were then screened for their ability to activate WT and Mincle^−/− BMDMs, with cellular activation being determined by the measurement of IL-1B using ELISA (FIG. 6).

[1] = test system: OT-II CD4+ T-cells co-cultured with GM-CSF BMDMs; assay: BMDM / OT-II T-cell co-culture, OVA-specific IFN-γ and IL-17; format: cell-based, mice; details: 48 hours
Description: as §2
BMDC-OT-II T-cell co-cuture: A mixture of OT-II cells (1×10^5 cells/100 μL) and BMDCs (1×10^4 cells/100 μL) were stimulated with plate coated glycolipd (0.1 nmol/well) or iPrOH only (20 μL/well) and increasing concentrations of OVA (0, 0.1, or 1 μM). After 48 or 72 hours, the supernatant was collected and ELISA was employed to determine the levels of IFN-γ and IL-17.
To evaluate the potential of C18dMeBrar (9a) as a Th1/Th17 adjuvant, GM-CSF BMDMs and T-cells from OVA-specific OT-II TCR Tg mice were co-cultured on plates coated with TDM (0.01 nmol/well), TDB (0.01 nmol/well), or C18dMeBrar (9a, 0.01 nmol/well). The cells were stimulated with OVA (0, 0.1, and 1 μM), and after 48 hours, the supernatant was collected. Levels of the key Th1 cytokine IFN-γ, which is indicative of an enhanced host defence response, and the Th17 cytokine IL-17 were measured via ELISA (FIG. 3). […] Antigen-specific secretion of IFN-γ however, was not enhanced by treatment with 9a.

[2] = 0.01 nmol/well, OVA 0, 0.1 and 1 μM, ELISA

6,6′-Di-O-(2-hydroxy-4-octabenzyloxybenzoyl)-α,α′-D-trehalose [9a]
binding to hMincle-Ig (ELISA, OD at 450 nm) (hMincle-Ig): good binding | activation of hMincle NFAT-GFP reporter cells (GFP by flow cytometry) (hMincle+FcRγ): strongly activated; also recorded: best able to activate hMincle | IL-1β production (wild-type GM-CSF BMDMs): significant production | IL-6 production (wild-type GM-CSF BMDMs): significant production | MIP-2 production (wild-type GM-CSF BMDMs): significant production | TNF production (wild-type GM-CSF BMDMs): significant production | OVA-specific production of IL-17 [1, 2]: significantly augmented | antigen-specific secretion of IFN-γ [1, 2]: not enhanced | adjuvant activity in vitro ([1]; 0.1 nmol/well, OVA323-339 peptide 0, 0.1 and 1 μM): displays adjuvant activity in vitro
